This passage reports relative viability results from the supplement of paper PMC10307832.

What all share (experiment): relative viability (nuclei count vs DMSO), 5 days (fraction); higher = more cells survive
Compound in test [1]: O=C(C[C@H]1NCCC[C@@H]1O)Cn1cnc2cc(Br)c(Cl)cc2c1=O (racemic) [Halofuginone] + C[C@@H](Oc1cc(-c2cnn(C3CCNCC3)c2)cnc1N)c1c(Cl)ccc(F)c1Cl [Crizotinib] (partner 1 µM)
A digest of the protocol: (§1)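 Lung cancer cell lines in 1536-well plates got either a single drug or a fixed anchor-drug dose together with five library-drug doses (not always all listed) in √10 steps, by pin tool, on the day after seeding. Nuclei were counted after 5 days, and relative viability is the treated-to-vehicle ratio of nuclei counts. Values are medians of duplicate plates.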

Compound in the test “Cediranib + Alpelisib”: COc1cc2c(Oc3ccc4[nH]c(C)cc4c3F)ncnc2cc1OCCCN1CCCC1 [Cediranib] + Cc1nc(NC(=O)N2CCC[C@H]2C(N)=O)sc1-c1ccnc(C(C)(C)C(F)(F)F)c1 [Alpelisib] (partner 2 µM)
A digest of the protocol:
as §1

Compound in the test “Decitabine + Linsitinib”: Nc1ncn([C@H]2C[C@H](O)[C@@H](CO)O2)c(=O)n1 [Decitabine] + C[C@]1(O)C[C@@H](c2nc(-c3ccc4ccc(-c5ccccc5)nc4c3)c3c(N)nccn32)C1 [Linsitinib] (partner 1 µM)
A digest of the protocol:
as §1

Compound in test [2]: O=C(C[C@H]1NCCC[C@@H]1O)Cn1cnc2cc(Br)c(Cl)cc2c1=O (racemic) [Halofuginone] + O=C(CCCCCCC(=O)Nc1ccccc1)NO [Vorinostat] (partner 1 µM)
The method in brief: as §1

For the cell line UMC-11, the relative viability in test [1] (first compound 0.001 µM) worked out at 0.66; in test [1] (first compound 0.003162 µM), 0.558; in test [1] (first compound 0.01 µM), 0.575; in test [1] (first compound 0.03162 µM), 0.534; in test [1] (first compound 0.1 µM), 0.215; in the test with Cediranib + Alpelisib (first compound 0.04 µM) it was 1.06. Moreover, the relative viability with Cediranib + Alpelisib (first compound 0.1265 µM) amounted to 0.879; with Cediranib + Alpelisib (first compound 0.4 µM), 0.934; with Cediranib + Alpelisib (first compound 1.265 µM), 0.984; with Cediranib + Alpelisib (first compound 4 µM), 0.922; in the test with Decitabine + Linsitinib (first compound 0.04 µM) it was 0.976; with Decitabine + Linsitinib (first compound 0.1265 µM), 0.802. The relative viability with Decitabine + Linsitinib (first compound 0.4 µM) is 0.448; in the test with Decitabine + Linsitinib (first compound 1.265 µM), 0.38; in the test with Decitabine + Linsitinib (first compound 4 µM), 0.335; in test [2] (first compound 0.001 µM), 0.428; in test [2] (first compound 0.003162 µM) it was 0.381; in test [2] (first compound 0.01 µM) it was 0.348. Also, the relative viability is 0.334 in test [2] (first compound 0.03162 µM) and 0.205 in test [2] (first compound 0.1 µM).
